Experimental data reported in US7105554B2, “Benzylidene thiazolidinediones and their use as antimycotic agents” (priority 2000, dated 2006).

Assays:
[1] = target: T1, Candida albicans PMT-1 enzyme (Candida albicans, UniProt O74189); test: PMT-1 Assay; type: biochemical; conditions: transfer of [3H]-mannose from dolicholphosphomannose to peptide DYATAV, Candida albicans membrane protein, 60 minutes at 25° C., pH 8.0; read-out: PMT-1 Inhibition (IC50, microM)
T1 construct: 25 μg of Candida albicans membrane protein; endogenous in cells
Procedure: The assay method is based upon the transfer of a radiolabelled mannose moiety from dolicholphosphomannose onto a threonine hydroxyl residue in a short peptide, as catalysed by the Candida albicans PMT-1 enzyme. Dolicholphospho-[^3H]-mannose is synthesised enzymatically from GDP-[^3H]-mannose and purified by chloroform:methanol extraction.
100000 Dpm of the generated substrate is incubated with 400 μg phosphatidylcholine, 25 μg of peptide (DYATAV) and 25 μg of Candida albicans membrane protein in a final volume of 50 μl in 100 mM Tris/1 mM MgCl2 buffer, pH 8.0. After 60 minutes at 25° C., the reaction is stopped with 50 μl of methanol. The unreacted radiolabel is removed by the addition of 150 μl of 0.4 g/ml octadecyl-functionalised silica (C18) in methanol. The C18 material is removed by centrifugation and the activity transferred to the peptide is counted in the supernatant.

[2] = system: Candida albicans (strain SC5314); test: G418 Sensitivity Assay; type: cell-based; conditions: concentration giving 50% reduction in cell growth relative to culture with G418 alone, strain SC5314, overnight at 37° C., OD600 nm, 1% DMSO
Procedure: This assay is based upon the observed increased sensitivity of the pmt1−/− Candida strain to Geneticin (G418) (6). 100 μl of a 0.1 OD600 nm culture of Candida albicans (strain SC5314) is placed into a 96 well plate in the presence or absence of varying concentrations of test compound. The compounds are initially dissolved in DMSO and added to the cultures at a final DMSO concentration of 1%. G418 is added to a final concentration of 100 [2 g/ml. In the absence of PMT1 inhibition, this concentration of G418 has no effect on the proliferation of the organism. The cultures are grown overnight at 37° C. and cell density is then estimated by an OD600 nm measurement. The effect of the test compound is calculated as the concentration that gives a 50% reduction in cell growth relative to the culture with G418 alone.

T1 sequence (O74189 whole entry): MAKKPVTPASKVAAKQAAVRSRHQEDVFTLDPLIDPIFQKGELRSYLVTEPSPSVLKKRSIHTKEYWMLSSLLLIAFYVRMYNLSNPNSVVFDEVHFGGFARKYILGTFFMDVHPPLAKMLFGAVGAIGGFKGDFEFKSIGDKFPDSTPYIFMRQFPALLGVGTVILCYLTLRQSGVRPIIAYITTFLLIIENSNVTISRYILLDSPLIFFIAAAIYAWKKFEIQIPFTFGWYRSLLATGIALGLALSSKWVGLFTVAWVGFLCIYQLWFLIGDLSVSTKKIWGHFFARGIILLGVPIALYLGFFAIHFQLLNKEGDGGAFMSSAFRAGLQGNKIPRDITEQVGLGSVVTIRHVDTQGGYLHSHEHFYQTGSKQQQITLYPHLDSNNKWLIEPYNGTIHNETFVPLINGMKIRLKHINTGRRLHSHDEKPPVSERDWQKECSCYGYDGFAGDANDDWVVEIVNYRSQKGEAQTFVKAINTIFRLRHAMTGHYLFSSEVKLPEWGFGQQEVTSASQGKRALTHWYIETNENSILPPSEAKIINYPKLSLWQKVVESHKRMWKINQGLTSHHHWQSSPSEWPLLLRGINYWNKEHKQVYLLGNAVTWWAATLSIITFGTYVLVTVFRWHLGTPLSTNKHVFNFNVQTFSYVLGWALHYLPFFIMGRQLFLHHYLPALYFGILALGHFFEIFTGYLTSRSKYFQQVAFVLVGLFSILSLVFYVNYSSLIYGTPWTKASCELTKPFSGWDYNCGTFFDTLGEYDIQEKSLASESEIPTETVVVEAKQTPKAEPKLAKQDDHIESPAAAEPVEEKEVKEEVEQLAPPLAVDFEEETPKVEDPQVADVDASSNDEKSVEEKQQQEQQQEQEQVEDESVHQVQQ
T1 sequence (Q5ADM9 whole entry, further chain): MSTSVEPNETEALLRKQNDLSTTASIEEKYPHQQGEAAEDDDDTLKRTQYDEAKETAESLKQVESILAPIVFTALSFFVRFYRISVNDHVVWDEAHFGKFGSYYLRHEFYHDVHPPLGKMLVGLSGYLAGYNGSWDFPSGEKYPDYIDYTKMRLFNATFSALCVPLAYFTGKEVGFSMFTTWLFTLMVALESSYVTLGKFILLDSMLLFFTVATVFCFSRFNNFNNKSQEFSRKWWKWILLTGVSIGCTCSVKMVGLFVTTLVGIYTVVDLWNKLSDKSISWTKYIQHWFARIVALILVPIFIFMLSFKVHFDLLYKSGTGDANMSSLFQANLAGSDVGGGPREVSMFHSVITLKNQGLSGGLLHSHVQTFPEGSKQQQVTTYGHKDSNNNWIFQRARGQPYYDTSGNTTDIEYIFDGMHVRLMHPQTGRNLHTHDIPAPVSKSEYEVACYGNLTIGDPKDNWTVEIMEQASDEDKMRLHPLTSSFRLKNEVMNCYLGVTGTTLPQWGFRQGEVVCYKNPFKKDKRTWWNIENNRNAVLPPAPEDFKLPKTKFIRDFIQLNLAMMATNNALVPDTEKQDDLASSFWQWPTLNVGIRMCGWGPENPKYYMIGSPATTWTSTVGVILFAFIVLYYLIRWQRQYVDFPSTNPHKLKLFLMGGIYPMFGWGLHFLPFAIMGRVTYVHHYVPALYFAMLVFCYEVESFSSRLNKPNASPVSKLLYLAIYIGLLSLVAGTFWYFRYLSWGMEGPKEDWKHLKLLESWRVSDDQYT

O=C(O)CN1C(=O)/C(=C/c2ccc(OCc3ccc(Cl)cc3)c(OCc3ccccc3)c2)SC1=S [Example 44, 5-[[4-[(4-Chlorophenyl)methoxy] 3-(phenylmethoxy)phenyl]-methylene]-4-oxo-2-thioxo-3-thiazolidineacetic acid]
IC50 [1]: 1 µM | IC50 [2]: 600 nM

O=C(O)CN1C(=O)/C(=C/c2ccc(OCc3ccccc3)c(OCc3ccccc3)c2)SC1=S [Example 29, 5-[[3,4-bis(phenylmethoxy)phenyl]methylene]-4-oxo-2-thioxo-3-thiazolidineacetic acid]
melting point: 235 to 238 °C

O=C(O)CN1C(=O)/C(=C/c2ccc(OCc3cccc(C(F)(F)F)c3)c(OCc3ccccc3)c2)SC1=S [Example 39, 5-[[3-(Phenylmethoxy)-4-[(3-trifluoromethylphenyl)methoxy]phenyl]-methylene]-4-oxo-2-thioxo-3-thiazolidineacetic acid]
IC50 [1]: 2 µM | IC50 [2]: 650 nM

C[C@H](COc1ccc(/C=C2\SC(=S)N(CC(=O)O)C2=O)cc1O[C@@H](c1ccccc1)C(F)(F)F)c1ccccc1 [Example 60, 5-[[3-[(S)-1-Phenyl-2,2,2-trifluoroethoxy]-4-[(S)-2-phenylpropoxy]-phenyl]methylene]-4-oxo-2-thioxo-3-thiazolidineacetic acid]
melting point: 73 to 80 °C

O=C(O)CN1C(=O)/C(=C/c2ccc(OCc3ccc(OC(F)(F)F)cc3)c(OCc3ccccc3)c2)SC1=S [Example 42, 5-[[3-(Phenylmethoxy)-4-[(4-trifluoromethoxyphenyl)methoxy]-phenyl]-methylene]-4-oxo-2-thioxo-3-thiazolidineacetic acid]
IC50 [1]: 1 µM | IC50 [2]: 350 nM
